Results: ChEMBL document CHEMBL1125177, “Pseudopeptide analogues of substance P and leucine enkephalinamide containing the psi (CH2O) modification: synthesis and biological activity” (J Med Chem, 1991)
Activity calls are given as the source filed them. The calls are words filed in the database; no cut-off is given here. Starred links: 1 amine or outer side, 2 acyl side, 3 side chain; linkers in the order of their positions; H or OH if unused. Non-standard residues stand in square brackets, D forms with d. Residues, ends and D or L forms follow the SMILES beside them. X3 = O=C(CCC(=O)[*:2])[C@H](Cc1ccccc1)N[*:1]; X4 = O=C(C/C=C/[C@H](Cc1ccccc1)N[*:1])[*:2]; X1 = O=C(COC[C@H](Cc1ccccc1)N[*:1])[*:2]; NMeF = CN[C@@H](Cc1ccccc1)C(=O)O; pGlu = O=C1CC[C@@H](C(=O)O)N1; AEA = NCCOCC(=O)O; Ava = NCCCCC(=O)O; Sar = CNCC(=O)O

Columns and labels:
Cavia porcellus [1] = species: Cavia porcellus; assay: Relative potency to that of [D-Ala2,Leu5]enkephalinamide in guinea pig ileum; format: functional
Cavia porcellus [2] = species: Cavia porcellus; assay: Relative potency to that of [DAla2,Leu5]enkaphalinamide.; format: functional
Cavia porcellus [3] = species: Cavia porcellus; assay: Inhibitory effect was measured on guinea pig ileum for maximal contraction; format: functional
Mus musculus [4] = species: Mus musculus; assay: Inhibitory effect was measured on mouse vas deferens; format: functional
Mus musculus [5] = species: Mus musculus; assay: Relative potency to that of [D-Ala2, Leu5]-enkaphalinamide in mouse vas deferens; format: functional
[6] = Ratio of IC50 measured in MVD to that of GPI.; format: functional
[7] = biological target: Delta-type opioid receptor (Rattus norvegicus, UniProt P33533); assay: Binding affinity to opioid receptor delta was determined in rat brain using [3H]DSTBULET as radioligand; format: tissue-based
Delta-type opioid receptor, sequence (P33533 whole entry): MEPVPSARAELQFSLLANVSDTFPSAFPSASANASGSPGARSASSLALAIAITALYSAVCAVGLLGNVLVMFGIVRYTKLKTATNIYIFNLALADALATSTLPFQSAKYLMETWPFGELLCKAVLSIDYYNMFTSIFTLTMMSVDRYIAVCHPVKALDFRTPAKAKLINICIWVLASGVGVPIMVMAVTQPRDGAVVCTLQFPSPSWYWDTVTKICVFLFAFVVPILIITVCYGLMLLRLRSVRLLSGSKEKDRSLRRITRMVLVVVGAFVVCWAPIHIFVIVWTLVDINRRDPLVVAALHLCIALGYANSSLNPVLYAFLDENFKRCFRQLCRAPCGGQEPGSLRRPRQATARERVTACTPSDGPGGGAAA

[8] = biological target: Delta-type opioid receptor (Rattus norvegicus) (UniProt P33533); assay: It is the ratio of Ki value for delta receptor to that of opioid receptor mu
Delta-type opioid receptor (Rattus norvegicus), sequence (P33533 whole entry): as above

Mu-type opioid receptor = Mu-type opioid receptor (Rattus norvegicus, UniProt P33535); assay: Binding affinity to opioid receptor mu was determined in rat brain using [3H]DAGO as radioligand; format: tissue-based
Mu-type opioid receptor, sequence (P33535 whole entry): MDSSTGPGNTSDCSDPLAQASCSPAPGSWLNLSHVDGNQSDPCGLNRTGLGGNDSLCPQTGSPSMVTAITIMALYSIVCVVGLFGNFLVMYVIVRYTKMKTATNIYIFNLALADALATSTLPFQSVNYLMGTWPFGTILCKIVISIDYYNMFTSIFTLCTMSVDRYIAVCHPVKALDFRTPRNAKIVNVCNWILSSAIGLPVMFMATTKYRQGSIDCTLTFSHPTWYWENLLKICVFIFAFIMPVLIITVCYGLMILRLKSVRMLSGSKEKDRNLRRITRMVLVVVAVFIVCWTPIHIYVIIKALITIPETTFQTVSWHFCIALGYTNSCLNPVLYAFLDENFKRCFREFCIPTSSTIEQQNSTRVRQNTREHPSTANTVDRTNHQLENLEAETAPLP

Cavia porcellus [9] = species: Cavia porcellus; assay: Effective concentration was determined using guinea pig ileum; format: functional
Cavia porcellus [10] = species: Cavia porcellus; assay: Relative potency to that of [pGlu6]SP6-11 in guinea pig ileum; format: functional
Mus musculus [11] = species: Mus musculus; assay: Inhibitory effect was measured on mouse vas deferens; c = Did not show agonist activity up to 10E-5 M; format: functional
Mus musculus [12] = species: Mus musculus; assay: Relative potency to that of [D-Ala2, Leu5]-enkaphalinamide in mouse vas deferens; c = Did not show agonist activity up to 10E-5 M; format: functional
[13] = Ratio of IC50 measured in MVD to that of GPI; c= Did not show agonist activity up to 10E-5 M.; format: functional
Cavia porcellus [14] = species: Cavia porcellus; assay: Effective dose was measured on guinea pig ileum for maximal contraction; format: functional
[15] = biological target: T1, Neuromedin-K receptor (Cavia porcellus) (UniProt P30098); assay: Relative potency as ratio of the EC50 value of analogue to that of [PGlu6]SP6-11 in tachykinin receptor 3 in guinea pig ileum; format: functional, tissue-based
T1 sequence (whole entry): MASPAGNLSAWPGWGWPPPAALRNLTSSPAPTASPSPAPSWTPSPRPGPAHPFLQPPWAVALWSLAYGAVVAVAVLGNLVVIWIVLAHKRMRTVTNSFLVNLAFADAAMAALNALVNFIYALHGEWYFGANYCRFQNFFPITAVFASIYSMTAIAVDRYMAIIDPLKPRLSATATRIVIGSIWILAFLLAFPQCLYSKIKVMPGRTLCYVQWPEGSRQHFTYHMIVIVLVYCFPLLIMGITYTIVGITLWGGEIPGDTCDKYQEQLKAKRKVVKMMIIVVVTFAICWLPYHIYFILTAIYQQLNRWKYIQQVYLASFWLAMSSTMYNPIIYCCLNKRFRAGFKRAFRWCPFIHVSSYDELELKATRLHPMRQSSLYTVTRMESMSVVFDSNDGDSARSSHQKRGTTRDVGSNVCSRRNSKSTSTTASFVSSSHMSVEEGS

Neuromedin-K receptor [16] = biological target: T2, Neuromedin-K receptor (Cavia porcellus, UniProt P30098); assay: Effective dose was measured on NK3 receptors of guinea pig ileum for maximal contraction in the presence of 10e-7 M substance P methyl ester; format: functional, tissue-based
T2 sequence (P30098 whole entry): T1 sequence (whole entry)

Substance-P receptor = Substance-P receptor (Cavia porcellus, UniProt P30547); assay: Effective dose was measured on NK1 receptors of guinea pig ileum for maximal contraction in the presence of 3*10e-7 M atropine; format: functional, tissue-based
Substance-P receptor, sequence (P30547 whole entry): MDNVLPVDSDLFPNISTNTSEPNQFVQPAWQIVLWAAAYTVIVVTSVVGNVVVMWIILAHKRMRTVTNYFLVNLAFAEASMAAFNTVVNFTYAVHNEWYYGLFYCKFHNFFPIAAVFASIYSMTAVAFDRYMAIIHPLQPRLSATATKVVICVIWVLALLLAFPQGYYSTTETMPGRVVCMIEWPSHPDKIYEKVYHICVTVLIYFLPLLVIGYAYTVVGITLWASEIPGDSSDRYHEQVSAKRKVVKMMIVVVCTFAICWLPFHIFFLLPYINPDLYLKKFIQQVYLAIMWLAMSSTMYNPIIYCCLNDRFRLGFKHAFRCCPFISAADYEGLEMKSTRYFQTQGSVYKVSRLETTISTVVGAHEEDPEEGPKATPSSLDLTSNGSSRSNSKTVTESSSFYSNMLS

Rattus norvegicus = species: Rattus norvegicus; assay: Inhibitory effect was measured on electrically stimulated rat vas deferens contraction; format: functional
[17] = Ratio of NK-1 receptor to that of NK-3 receptor; format: functional
Cavia porcellus [18] = species: Cavia porcellus; assay: Relative potency as ratio of the EC50 value of analogue to that of [PGlu6]SP6-11 in achykinin receptor 3 in guinea pig ileum; format: functional
Neuromedin-K receptor [19] = biological target: T2, Neuromedin-K receptor; assay: Effective dose was measured on NK3 receptors of guinea pig ileum for maximal contraction in the presence of 10e-7 M substance P methyl ester.; format: functional, tissue-based

SMILES: CSCC[C@H](NC(=O)[C@H](Cc1ccccc1)NC(=O)CNC(=O)CCC[C@H](N)Cc1ccc(O)cc1)C(N)=O
- Relative potency (Cavia porcellus [1]): 3%

SMILES: CSCC[C@H](NC(=O)[C@H](Cc1ccccc1)NC(=O)CN(C)C(=O)CNC(=O)[C@@H](N)Cc1ccc(O)cc1)C(=O)O
- Relative potency (Cavia porcellus [1]): 0.1%

SMILES: CSCC[C@H](NC(=O)[C@H](Cc1ccccc1)NC(=O)CNCCNC(=O)[C@@H](N)Cc1ccc(O)cc1)C(N)=O
- Relative potency (Cavia porcellus [1]): 0.3%

SMILES: CC(C)C[C@H](NC(=O)[C@H](Cc1ccccc1)NC(=O)C/N=C(\S)CNC(=O)[C@@H](N)Cc1ccc(O)cc1)C(=O)O
- Relative potency (Cavia porcellus [1]): 400%

SMILES: CC(C)C[C@H](NC(=O)[C@H](Cc1ccccc1)NC(=O)CSCCNC(=O)[C@@H](N)Cc1ccc(O)cc1)C(=O)O
- Relative potency (Cavia porcellus [1]): <1%

SMILES: CSCC[C@H](NC(=O)[C@H](Cc1ccccc1)NC(=O)CNC(=O)CN(C)C(=O)[C@@H](N)Cc1ccc(O)cc1)C(=O)O
- Relative potency (Cavia porcellus [1]): <2.1%

SMILES: CSCC[C@H](NC(=O)[C@H](Cc1ccccc1)NC(=O)CNC(=O)CNC[C@@H](N)Cc1ccc(O)cc1)C(N)=O
- Relative potency (Cavia porcellus [1]): 56%

SMILES: CC(C)C[C@H](NC(=O)[C@H](Cc1ccccc1)NC(=O)COC[C@@H](C)NC(=O)[C@@H](N)Cc1ccc(O)cc1)C(N)=O
- Relative potency (Cavia porcellus [2]): 1%
- IC50 (Cavia porcellus [3]): 32 nM
- IC50 (Mus musculus [4]): 11.8 nM
- Relative potency (Mus musculus [5]): 1%
- Ratio [6]: 0.37

SMILES: N[C@@H](Cc1ccc(O)cc1)C(=O)NC/C=C/CC(=O)N[C@@H](Cc1ccccc1)C(=O)N1CCC[C@H]1C(=O)O
- Relative potency (Cavia porcellus [1]): 0.1%

SMILES: CC(C)C[C@H](NC(=O)[C@H](Cc1ccccc1)NC(=O)CNC(=O)COC[C@@H](N)Cc1ccc(O)cc1)C(N)=O
- Relative potency (Cavia porcellus [1]): 106%
- Relative potency (Cavia porcellus [2]): 1.06%
- IC50 (Cavia porcellus [3]): 30 nM
- IC50 (Mus musculus [4]): 92 nM
- Relative potency (Mus musculus [5]): 0.13%
- Ki [7]: 7.78 nM
- Ratio [8]: 2.12
- Ki (Mu-type opioid receptor): 3.69 nM
- Ratio [6]: 3.12

SMILES: CC(C)CC(NC(=O)[C@H](Cc1ccccc1)NC(=O)COC[C@@H](CO)NC(=O)C(N)Cc1ccc(O)cc1)C(=O)N[C@H](C(=O)O)[C@@H](C)O (stereo not given in full)
- Relative potency (Cavia porcellus [2]): 0.09%
- IC50 (Cavia porcellus [3]): 350 nM
- IC50 (Mus musculus [4]): 0.54 nM
- Relative potency (Mus musculus [5]): 21.8%
- Ratio [6]: 0.0015

SMILES: CSCC[C@H](NC(=O)[C@H](CC(C)C)NC(=O)CC(=O)N[C@H](Cc1ccccc1)NC(=O)[C@H](Cc1ccccc1)NC(=O)[C@@H]1CCC(=O)N1)C(N)=O
- EC50 (Cavia porcellus [9]): 2 nM
- Relative potency (Cavia porcellus [10]): 22%

SMILES: CSCC[C@H](NC(=O)[C@H](Cc1ccccc1)NC(=O)CNC(=O)[C@@H](C)NC(=O)[C@@H](N)Cc1ccc(O)cc1)C(N)=O
- Relative potency (Cavia porcellus [1]): 1.1%
- IC50 (Cavia porcellus [3]): 29 nM
- IC50 (Mus musculus [4]): 4.2 nM
- Relative potency (Mus musculus [5]): 2.8%
- Ratio [6]: 0.14

SMILES: CC(C)C[C@H](NC(=O)[C@H](Cc1ccccc1)NC(=O)CNC(=O)CSC[C@@H](N)Cc1ccc(O)cc1)C(=O)O
- Relative potency (Cavia porcellus [1]): 24.1%

SMILES: COC(=O)[C@H](CC(C)C)NC(=O)[C@H](Cc1ccccc1)NC(=O)CNC(=O)C/C=C/[C@@H](N)Cc1ccc(O)cc1
- Relative potency (Cavia porcellus [1]): 300%

SMILES: CC(C)C[C@H](NC(=O)[C@H](Cc1ccccc1)NC(=O)COCCNC(=O)[C@@H](N)Cc1ccc(O)cc1)C(N)=O (H-Y[AEA]FL-NH2)
- Relative potency (Cavia porcellus [1]): 1.4%
- Relative potency (Cavia porcellus [2]): 0.014%
- IC50 (Cavia porcellus [3]): 2300 nM
- IC50 (Mus musculus [11]): Not Active
- Relative potency (Mus musculus [12]): inactive
- Ki [7]: 9200 nM
- Ratio [8]: 6.66
- Ki (Mu-type opioid receptor): 1380 nM
- Ratio [13]: inactive

SMILES: CSCC[C@H](NC(=O)[C@H](Cc1ccccc1)NC(=O)CCCCNC(=O)[C@@H](N)Cc1ccc(O)cc1)C(N)=O (H-Y[Ava]FM-NH2)
- Relative potency (Cavia porcellus [1]): <0.3%

SMILES: CSCC[C@H](NC(=O)[C@H](CC(C)C)NC(=O)CNC(=O)[C@H](Cc1ccccc1)NC(=O)[C@H](Cc1ccccc1)NC(=O)[C@@H]1CCC(=O)N1)C(N)=O ([pGlu]FFGLM-NH2)
- EC50 (Cavia porcellus [14]): 1.2 nM
- Relative potency [15]: 100%
- EC50 (Neuromedin-K receptor [16]): 5 nM
- EC50 (Substance-P receptor): 2.2 nM
- EC50 (Rattus norvegicus): 20000 nM
- Ratio [17]: 0.44

SMILES: CSCC[C@H](NC(=O)[C@H](CC(C)C)NC(=O)CN(C)C(=O)[C@H](Cc1ccccc1)NC(=O)[C@H](Cc1ccccc1)NC(=O)[C@@H]1CCC(=O)N1)C(N)=O ([pGlu]FF[Sar]LM-NH2)
- EC50 (Cavia porcellus [9]): 2 nM
- Relative potency (Cavia porcellus [10]): 80%

SMILES: CSCC[C@H](NC(=O)[C@H](CC(C)C)NC(=O)CNC(=O)[C@H](Cc1ccccc1)N(C)C(=O)[C@H](Cc1ccccc1)NC(=O)[C@@H]1CCC(=O)N1)C(N)=O ([pGlu]F[NMeF]GLM-NH2)
- EC50 (Cavia porcellus [14]): 0.4 nM
- Relative potency (Cavia porcellus [18]): 555%
- EC50 (Neuromedin-K receptor [19]): 0.9 nM
- EC50 (Substance-P receptor): 600 nM
- EC50 (Rattus norvegicus): 20000 nM
- Ratio [17]: 670

SMILES: CSCC[C@H](NC(=O)[C@H](CC(C)C)NC(=O)COC[C@H](Cc1ccccc1)NC(=O)[C@H](Cc1ccccc1)NC(=O)[C@@H]1CCC(=O)N1)C(N)=O ([pGlu]F[X1]LM-NH2)
- EC50 (Cavia porcellus [9]): 2 nM
- EC50 (Cavia porcellus [14]): 4.8 nM
- Relative potency (Cavia porcellus [10]): 25%
- Relative potency [15]: 40%
- EC50 (Neuromedin-K receptor [19]): 12.5 nM
- EC50 (Substance-P receptor): 39.6 nM
- EC50 (Rattus norvegicus): 2000 nM
- Ratio [17]: 3.16

SMILES: CSCC[C@H](NC(=O)[C@H](CC(C)C)NC(=O)CCC(=O)[C@H](Cc1ccccc1)NC(=O)[C@H](Cc1ccccc1)NC(=O)[C@@H]1CCC(=O)N1)C(N)=O ([pGlu]F[X3]LM-NH2)
- EC50 (Cavia porcellus [9]): 2 nM
- Relative potency (Cavia porcellus [10]): 70%

SMILES: CSCC[C@H](NC(=O)[C@H](CC(C)C)NC(=O)C/C=C/[C@H](Cc1ccccc1)NC(=O)[C@H](Cc1ccccc1)NC(=O)[C@@H]1CCC(=O)N1)C(N)=O ([pGlu]F[X4]LM-NH2)
- EC50 (Cavia porcellus [9]): 2 nM
- Relative potency (Cavia porcellus [10]): 24%

SMILES: C[C@@H](NC(=O)[C@@H](N)Cc1ccc(O)cc1)C(=O)NCC(=O)N(C)[C@@H](Cc1ccccc1)C(=O)NCCO [DAMGO]
- IC50 (Cavia porcellus [3]): 18 nM
- IC50 (Mus musculus [4]): 51.5 nM
- Ki [7]: 629 nM
